Assay results published in publication PMC11212140, “Molecular Bidents with Two Electrophilic Warheads as a New Pharmacological Modality” (ACS Central Science, 2024).

How the values were obtained:
Test in all cases: KiNativ profiling in H3255 cells
Format in all cases: cell-based, human
CDK7 = tested on: T1, CDK7; settings: 2.5 µM
T1 construct: purchased ActivX Biosciences (KiNativ)
Protocol: (§1) treatment. Cell viability was determined by using CellTiter-Glo (Promega #G7571) according to the manufacturer’s instructions, measuring luminescence using an Envision plate-reader (PerkinElmer Inc.). Dose-response curves were generated using non-linear regression curve fit in GraphPad Prism 9.2.0(GraphPad Software).
(§2) Cellular target engagement assays
(§3) After 6 hours treatment, cells were pelleted, washed with PBS once and lysed with IP lysis buffer (25mMTris-HCl pH 7.4, 150mM NaCl, 1 mM EDTA, 1% NP-40 and 5% glycerol) (Thermo Fisher Scientific, Cat#87788) containing protease/phosphatase inhibitor cocktail (Roche). The protein concentrations were measured by BCA analysis (Pierce). Cell lysates were incubated with 1 μM of biotin conjugated probe (bio-Osimertinib or bio-ZNL-0013) at 4 ℃ overnight, and incubated for 3 more hours at room temperature. Lysates with probe were then incubated with streptavidin beads (Thermo Fisher, #20349) for 2 hours at 4 ℃. The protein-probe complexes on the beads were then subjected to immunoblotting.
(§4) H3255 cells were plated with 6.5x10^6 per condition in fresh media in 15 cm plates and treated the 80% confluency for 2 hours with DMSO or 2.5 μM of ZNL-0056. To harvest cells, plates were washed 3 times with cold PBS, then collected by scraping into 4 mL of cold PBS containing protease and phosphatase inhibitors. Cells were pelleted by centrifugation at 1350 g at 4 ℃ for 5 minutes and immediately frozen in liquid nitrogen. The frozen samples were sent to ActivX Biosciences (La Jolla, CA) for the remainder of the KiNativ profiling experiment4.
(§5) Protein expression and purification
(§6) Human EGFR kinase domain (residues 696-1022) with T790M and V948R mutations was cloned with an N-terminal, protease cleavable His -GST tag. Recombinant protein was expressed in SF9 insect cells using baculovirus generated from the pFastBac system (Thermo Fisher) .
(§7) Briefly, cells at a density of ~2x10^6 cells/mL were infected with 1% (v/v) virus stock and grown for ~72 hours before harvesting and freezing the cell pellet . Infected cells were lysed in buffer A (50 mM Tris pH 8.0, 500 mM NaCl, 5% glycerol, 0.5 mM Tris(2-carboxyethyl)phosphine [TCEP]), ultracentrifuged at >200,000 rcf for 1 h, and the supernatant flo wed through Ni-NTA resin by gravity. The resin was washed with buffer A supplemented with 40 mM imidazole by […]

CDKL3 = tested on: T2, CDKL3; settings: 2.5 µM; Lys2; DIKPENILVSQSGITK
T2 construct: purchased ActivX Biosciences (KiNativ)
Protocol: as §1, §2, §3, §4, §5, §6, §7

CaMK1a = tested on: T3, CaMK1a; settings: 2.5 µM; Lys1; LVAIKCIAK
T3 construct: purchased ActivX Biosciences (KiNativ)
Protocol: as §1, §2, §3, §4, §5, §6, §7

CaMKK2 = tested on: T4, CaMKK2; settings: 2.5 µM
T4 construct: purchased ActivX Biosciences (KiNativ)
Protocol: as §1, §2, §3, §4, §5, §6, §7

EGFR, EGFR-L858R = tested on: T5, EGFR, EGFR-L858R; settings: 2.5 µM
T5 construct: purchased ActivX Biosciences (KiNativ)
Protocol: as §1, §2, §3, §4, §5, §6, §7

EphB4 = tested on: T6, EphB4; settings: 2.5 µM; Activation Loop; FLEENSSDPTYTSSLGGKIPIR
T6 construct: purchased ActivX Biosciences (KiNativ)
Protocol: as §1, §2, §3, §4, §5, §6, §7

GSK3A = tested on: T7, GSK3A; settings: 2.5 µM; Lys2; DIKPQNLLVDPDTAVLK
T7 construct: purchased ActivX Biosciences (KiNativ)
Protocol: as §1, §2, §3, §4, §5, §6, §7

MAP3K3 = tested on: T8, MAP3K3; settings: 2.5 µM; Lys1; ELASKQVQFDPDSPETSKEVSALECEIQLLK
T8 construct: purchased ActivX Biosciences (KiNativ)
Protocol: as §1, §2, §3, §4, §5, §6, §7

MAP3K6 = tested on: T9, MAP3K6; settings: 2.5 µM; Lys2; DIKGDNVLINTFSGLLK
T9 construct: purchased ActivX Biosciences (KiNativ)
Protocol: as §1, §2, §3, §4, §5, §6, §7

MAP4K3 = tested on: T10, MAP4K3; settings: 2.5 µM
T10 construct: purchased ActivX Biosciences (KiNativ)
Protocol: as §1, §2, §3, §4, §5, §6, §7

MASTL = tested on: T11, MASTL; settings: 2.5 µM
T11 construct: purchased ActivX Biosciences (KiNativ)
Protocol: as §1, §2, §3, §4, §5, §6, §7

MPSK1 = tested on: T12, MPSK1; settings: 2.5 µM; Lys2; DLKPTNILLGDEGQPVLMDLGSMNQACIHVEGSR
T12 construct: purchased ActivX Biosciences (KiNativ)
Protocol: as §1, §2, §3, §4, §5, §6, §7

MST1, MST2 = settings: 2.5 µM; Lys2; DIKAGNILLNTEGHAK
Protocol: as §1, §2, §3, §4, §5, §6, §7

NEK9 = tested on: T13, NEK9; settings: 2.5 µM
T13 construct: purchased ActivX Biosciences (KiNativ)
Protocol: as §1, §2, §3, §4, §5, §6, §7

PIK3CB = tested on: T14, PIK3CB; settings: 2.5 µM; ATP; VFGEDSVGVIFKNGDDLRQDMLTLQMLR
T14 construct: purchased ActivX Biosciences (KiNativ)
Protocol: as §1, §2, §3, §4, §5, §6, §7

PKD3 = tested on: T15, PKD3; settings: 2.5 µM
T15 construct: purchased ActivX Biosciences (KiNativ)
Protocol: as §1, §2, §3, §4, §5, §6, §7

PKN1 = tested on: T16, PKN1; settings: 2.5 µM; Lys1; VLLSEFRPSGELFAIKALK
T16 construct: purchased ActivX Biosciences (KiNativ)
Protocol: as §1, §2, §3, §4, §5, §6, §7

PKN2 = tested on: T17, PKN2; settings: 2.5 µM; Lys2; DLKLDNLLLDTEGFVK
T17 construct: purchased ActivX Biosciences (KiNativ)
Protocol: as §1, §2, §3, §4, §5, §6, §7

PLK1 = tested on: T18, PLK1; settings: 2.5 µM
T18 construct: purchased ActivX Biosciences (KiNativ)
Protocol: as §1, §2, §3, §4, §5, §6, §7

VRK2 = tested on: T19, VRK2; settings: 2.5 µM; Lys2; MLDVLEYIHENEYVHGDIKAANLLLGYK
T19 construct: purchased ActivX Biosciences (KiNativ)
Protocol: as §1, §2, §3, §4, §5, §6, §7

Wnk1, Wnk2, Wnk4 = settings: 2.5 µM; Activation Loop; IGDLGLATLKR
Protocol: as §1, §2, §3, §4, §5, §6, §7

Wnk1, Wnk2 = settings: 2.5 µM; ATP Loop; GSFKTVYK
Protocol: as §1, §2, §3, §4, §5, §6, §7

YANK3 = tested on: T20, YANK3; settings: 2.5 µM; Lys2; DVKPDNILLDER
T20 construct: purchased ActivX Biosciences (KiNativ)
Protocol: as §1, §2, §3, §4, §5, §6, §7

Structure (SMILES)	Inhibition (CDK7; Lys1, DKNTNQIVAIKK) [%]	Inhibition (CDK7; Lys2, DLKPNNLLLDENGVLK) [%]	Inhibition (CDKL3) [%]	Inhibition (CaMK1a) [%]	Inhibition (CaMKK2; Lys1, LAYNENDNTYYAMKVLSK) [%]	Inhibition (CaMKK2; Lys2, DIKPSNLLVGEDGHIK) [%]	Inhibition (EGFR, EGFR-L858R; Lys1, IPVAIKELR) [%]	Inhibition (EphB4) [%]	Inhibition (GSK3A) [%]	Inhibition (MAP3K3) [%]	Inhibition (MAP3K6) [%]	Inhibition (MAP4K3; Lys1, NVNTGELAAIKVIK) [%]	Inhibition (MAP4K3; Lys2, DIKGANILLTDNGHVK) [%]	Inhibition (MASTL; ATP Loop, GAFGKVYLGQK) [%]	Inhibition (MASTL; Lys1, LYAVKVVK) [%]	Inhibition (MPSK1) [%]	Inhibition (MST1, MST2) [%]	Inhibition (NEK9; Activation Loop, LGDYGLAKK) [%]	Inhibition (NEK9; Lys1, RTEDDSLVVWKEVDLTR) [%]	Inhibition (NEK9; Lys2, DIKTLNIFLTK) [%]	other results
C=CC(=O)Nc1cc(C(=O)Nc2nc3cccc(C)c3n2[C@@H]2CCCCN(C(=O)C=C)C2)cs1 [ZNL-0056]	-17.3	-3.1	-6.0	5.1	74.6	73.1	94.3	-4.5	11.5	-6.3	20.5	9.4	21.1	13.0	16.2	7.6	16.1	-6.5	3.2	4.4	Inhibition (EGFR, EGFR-L858R; Activation Loop, LLGAEEKEYHAEGGKVPIK): 83.2%; Inhibition (PIK3CB): -22.3%; Inhibition (PKD3; Lys1, DVAIKVIDK): -14.1%; Inhibition (PKD3; Lys2, NIVHCDLKPENVLLASAEPFPQVK): 3.5%; Inhibition (PKN1): 8.5%; Inhibition (PKN2): 22.0%; Inhibition (PLK1; Lys1, CFEISDADTKEVFAGKIVPK): 11.9%; Inhibition (PLK1; Lys2, DLKLGNLFLNEDLEVK): -1.2%; Inhibition (VRK2): 7.9%; Inhibition (Wnk1, Wnk2, Wnk4): 1.3%; Inhibition (Wnk1, Wnk2): -0.1%; Inhibition (YANK3): -11.7%
C=CC(=O)Nc1cc(Nc2nccc(-c3cn(C)c4ccccc34)n2)c(OC)cc1N(C)CCN(C)C [Osimertinib, osimertinib, reference compound]	34.0	14.2	4.6	7.0	73.3	60.8	96.8	19.2	-5.2	10.8	-16.3	-4.2	3.2	16.6	23.8	0.8	17.9	-11.0	-18.7	-12.2	Inhibition (EGFR, EGFR-L858R; Activation Loop, […]): 90.8%; Inhibition (PIK3CB): -1.4%; Inhibition (PKD3; Lys1, DVAIKVIDK): -11.4%; Inhibition (PKD3; Lys2, NIVHCDLKPENVLLASAEPFPQVK): -11.6%; Inhibition (PKN1): -12.2%; Inhibition (PKN2): 9.8%; Inhibition (PLK1; Lys1, CFEISDADTKEVFAGKIVPK): 9.6%; Inhibition (PLK1; Lys2, DLKLGNLFLNEDLEVK): 25.0%; Inhibition (VRK2): 6.4%; Inhibition (Wnk1, Wnk2, Wnk4): -32.3%; Inhibition (Wnk1, Wnk2): -14.8%; Inhibition (YANK3): 1.4%
